Values quoted from earlier work as cited in publication PMC7113793 (Antiviral Research, 2017).

Tests used:
[1] = system: PL^pro
[2] = biological target: Citrullus vulgaris urease; details: read-out: Kis
[3] = system: aldehyde dehydrogenase; details: in vivo
[4] = biological target: Giardia lamblia carbamate kinase

| Structure (SMILES) | loss of PL^pro activity [1] | Ki [2] | enzyme inhibition as compared to the activity of the control [3] | IC50 [4] |
| --- | --- | --- | --- | --- |
| O=C(O)CN(CCN(CC(=O)O)CC(=O)O)CC(=O)O [EDTA] | 62% |  |  |  |
| CCN(CC)C(=S)SSC(=S)N(CC)CC [disulfiram] |  | 67.6 µM | 77% | 0.6 to 1.4 µM |
